{"source": "patent US20080254003A1", "about": "“Differentiation of Human Embryonic Stem Cells and Cardiomyocytes and Cardiomyocyte Progenitors Derived Therefrom” (priority 2004, published 2008)", "tested_on": "HESC (hES2) co-cultured with END-2 cells", "assay": "HESC-END-2 co-culture, scoring of beating areas", "format": "cell-based, human", "settings": "10^−4 M ascorbic acid, serum-free HESC-END-2 co-culture, day 12, 12-well plates, n=6", "method": "END-2 cells and HESC lines hES2, hES3 and hES4 cells (passage number between 41-84) were cultured as described previously in Reubinoff B E, Pera M F, Fong C Y et al. Embryonic stem cell lines from human blastocysts: somatic differentiation in vitro. Nat Biotechnol 2000; 18:399-404 and Mummery C, Ward-van Oostwaard D, Doevendans P et al. Differentiation of human embryonic stem cells to cardiomyocytes: role of coculture with visceral endoderm-like cells. Circulation 2003; 107:2733-2740. To initiate co-cultures, END-2 cell cultures, treated for 3 hr with mitomycin C (mit.C; 10 μg/ml), replaced mouse embryonic fibroblasts (MEFs) as feeders for hES cells (Mummery et al (2003) and Mummery C L, van Achterberg T A, van den Eijnden-van Raaij A J et al. Visceral-endoderm-like cell lines induce differentiation of murine P19 embryonal carcinoma cells. Differentiation 1991; 46:51-60). As a control HESC were also grown on MEFs for the same period under the same culture conditions. In standard co-cultures, cells were grown in 12-well plates in DMEM containing L-glutamine, insulin-transferrin-selenium, non-essential amino acids, 90 μM β-mercaptoethanol, penicillin/streptomycin, and 20% FCS (Multicell, Wisent Inc, Canada). Co-cultures were then grown for up to 3 weeks and scored for the presence of areas of beating muscle from 5 days onwards. […]", "data": [{"compound": "O=C1O[C@H]([C@@H](O)CO)C(O)=C1O", "note": "[ascorbic acid]", "values": [{"measurement": "increase in the number of beating areas compared to untreated serum-free co-cultures", "result": 40, "unit": "%"}]}]}
